{
  "source": "the NIST ThermoML archive (doi:10.1021/je400004j)",
  "assay": "xn = mol fraction of the nth substance listed",
  "conditions": "298.15 K, Ring tensiometer",
  "note": "Numbers after ± are expanded uncertainties.",
  "data": [
    {"compound": "CCOP(=O)([O-])OCC.CCn1cc[n+](C)c1", "note": "[1-ethyl-3-methylimidazolium diethyl phosphate] + CCO", "values": [
      {"measurement": "surface tension liquid-gas", "setting": "x1 = 0.1", "result": "22.6 ± 0.3", "unit": "mN/m"},
      {"measurement": "surface tension liquid-gas", "setting": "x1 = 0.2", "result": "23.6 ± 0.4", "unit": "mN/m"},
      {"measurement": "surface tension liquid-gas", "setting": "x1 = 0.3", "result": "25 ± 0.4", "unit": "mN/m"},
      {"measurement": "surface tension liquid-gas", "setting": "x1 = 0.4", "result": "26.6 ± 0.4", "unit": "mN/m"},
      {"measurement": "surface tension liquid-gas", "setting": "x1 = 0.5", "result": "28.2 ± 0.4", "unit": "mN/m"},
      {"measurement": "surface tension liquid-gas", "setting": "x1 = 0.6", "result": "30.1 ± 0.4", "unit": "mN/m"},
      {"measurement": "surface tension liquid-gas", "setting": "x1 = 0.7", "result": "31.6 ± 0.5", "unit": "mN/m"},
      {"measurement": "surface tension liquid-gas", "setting": "x1 = 0.8", "result": "33.2 ± 0.5", "unit": "mN/m"},
      {"measurement": "surface tension liquid-gas", "setting": "x1 = 0.9", "result": "34.8 ± 0.5", "unit": "mN/m"},
      {"measurement": "surface tension liquid-gas", "setting": "x1 = 1", "result": "37.1 ± 0.5", "unit": "mN/m"}
    ]},
    {"compound": "CCOP(=O)([O-])OCC.CCn1cc[n+](C)c1", "note": "[1-ethyl-3-methylimidazolium diethyl phosphate] + CO", "values": [
      {"measurement": "surface tension liquid-gas", "setting": "x1 = 0.1", "result": "26.4 ± 0.4", "unit": "mN/m"},
      {"measurement": "surface tension liquid-gas", "setting": "x1 = 0.2", "result": "28.9 ± 0.4", "unit": "mN/m"},
      {"measurement": "surface tension liquid-gas", "setting": "x1 = 0.3", "result": "30.4 ± 0.4", "unit": "mN/m"},
      {"measurement": "surface tension liquid-gas", "setting": "x1 = 0.4", "result": "31.9 ± 0.5", "unit": "mN/m"},
      {"measurement": "surface tension liquid-gas", "setting": "x1 = 0.5", "result": "33.5 ± 0.5", "unit": "mN/m"},
      {"measurement": "surface tension liquid-gas", "setting": "x1 = 0.6", "result": "34.7 ± 0.5", "unit": "mN/m"},
      {"measurement": "surface tension liquid-gas", "setting": "x1 = 0.7", "result": "35.3 ± 0.5", "unit": "mN/m"},
      {"measurement": "surface tension liquid-gas", "setting": "x1 = 0.8", "result": "37.2 ± 0.5", "unit": "mN/m"},
      {"measurement": "surface tension liquid-gas", "setting": "x1 = 0.9", "result": "37.3 ± 0.5", "unit": "mN/m"},
      {"measurement": "surface tension liquid-gas", "setting": "x1 = 1", "result": "37.1 ± 0.5", "unit": "mN/m"}
    ]},
    {"compound": "CCOP(=O)([O-])OCC.CCn1cc[n+](C)c1", "note": "[1-ethyl-3-methylimidazolium diethyl phosphate] + O", "values": [
      {"measurement": "surface tension liquid-gas", "setting": "x1 = 0.02", "result": "49.7 ± 1.4", "unit": "mN/m"},
      {"measurement": "surface tension liquid-gas", "setting": "x1 = 0.04", "result": "46.5 ± 0.6", "unit": "mN/m"},
      {"measurement": "surface tension liquid-gas", "setting": "x1 = 0.08", "result": "44.2 ± 0.6", "unit": "mN/m"},
      {"measurement": "surface tension liquid-gas", "setting": "x1 = 0.1", "result": "42.6 ± 0.6", "unit": "mN/m"},
      {"measurement": "surface tension liquid-gas", "setting": "x1 = 0.12", "result": "41.4 ± 0.6", "unit": "mN/m"},
      {"measurement": "surface tension liquid-gas", "setting": "x1 = 0.14", "result": "40.7 ± 0.6", "unit": "mN/m"},
      {"measurement": "surface tension liquid-gas", "setting": "x1 = 0.2", "result": "38.9 ± 0.5", "unit": "mN/m"},
      {"measurement": "surface tension liquid-gas", "setting": "x1 = 0.3", "result": "38 ± 0.5", "unit": "mN/m"},
      {"measurement": "surface tension liquid-gas", "setting": "x1 = 0.4", "result": "37.8 ± 0.5", "unit": "mN/m"},
      {"measurement": "surface tension liquid-gas", "setting": "x1 = 0.5", "result": "37.5 ± 0.5", "unit": "mN/m"},
      {"measurement": "surface tension liquid-gas", "setting": "x1 = 0.6", "result": "37.4 ± 0.5", "unit": "mN/m"},
      {"measurement": "surface tension liquid-gas", "setting": "x1 = 0.7", "result": "37.3 ± 0.5", "unit": "mN/m"},
      {"measurement": "surface tension liquid-gas", "setting": "x1 = 0.8", "result": "37.2 ± 0.5", "unit": "mN/m"},
      {"measurement": "surface tension liquid-gas", "setting": "x1 = 0.9", "result": "37.3 ± 0.5", "unit": "mN/m"},
      {"measurement": "surface tension liquid-gas", "setting": "x1 = 1", "result": "37.1 ± 0.5", "unit": "mN/m"}
    ]},
    {"compound": "CCn1cc[n+](C)c1.COP(=O)([O-])OC", "note": "[1-ethyl-3-methylimidazolium dimethylphosphate] + CCO", "values": [
      {"measurement": "surface tension liquid-gas", "setting": "x1 = 0.1", "result": "22.9 ± 0.4", "unit": "mN/m"},
      {"measurement": "surface tension liquid-gas", "setting": "x1 = 0.2", "result": "24 ± 0.4", "unit": "mN/m"},
      {"measurement": "surface tension liquid-gas", "setting": "x1 = 0.3", "result": "25.5 ± 0.4", "unit": "mN/m"},
      {"measurement": "surface tension liquid-gas", "setting": "x1 = 0.4", "result": "27.5 ± 0.4", "unit": "mN/m"},
      {"measurement": "surface tension liquid-gas", "setting": "x1 = 0.5", "result": "29.5 ± 0.4", "unit": "mN/m"},
      {"measurement": "surface tension liquid-gas", "setting": "x1 = 0.6", "result": "31.7 ± 0.5", "unit": "mN/m"},
      {"measurement": "surface tension liquid-gas", "setting": "x1 = 0.7", "result": "34 ± 0.5", "unit": "mN/m"},
      {"measurement": "surface tension liquid-gas", "setting": "x1 = 0.8", "result": "36.5 ± 0.5", "unit": "mN/m"},
      {"measurement": "surface tension liquid-gas", "setting": "x1 = 0.9", "result": "39.3 ± 0.6", "unit": "mN/m"},
      {"measurement": "surface tension liquid-gas", "setting": "x1 = 1", "result": "44.3 ± 0.6", "unit": "mN/m"}
    ]},
    {"compound": "CCn1cc[n+](C)c1.COP(=O)([O-])OC", "note": "[1-ethyl-3-methylimidazolium dimethylphosphate] + CO", "values": [
      {"measurement": "surface tension liquid-gas", "setting": "x1 = 0.1", "result": "26.7 ± 0.4", "unit": "mN/m"},
      {"measurement": "surface tension liquid-gas", "setting": "x1 = 0.2", "result": "29.5 ± 0.4", "unit": "mN/m"},
      {"measurement": "surface tension liquid-gas", "setting": "x1 = 0.3", "result": "31.8 ± 0.5", "unit": "mN/m"},
      {"measurement": "surface tension liquid-gas", "setting": "x1 = 0.4", "result": "33.7 ± 0.5", "unit": "mN/m"},
      {"measurement": "surface tension liquid-gas", "setting": "x1 = 0.5", "result": "35.6 ± 0.5", "unit": "mN/m"},
      {"measurement": "surface tension liquid-gas", "setting": "x1 = 0.6", "result": "37 ± 0.5", "unit": "mN/m"},
      {"measurement": "surface tension liquid-gas", "setting": "x1 = 0.7", "result": "38.9 ± 0.6", "unit": "mN/m"},
      {"measurement": "surface tension liquid-gas", "setting": "x1 = 0.8", "result": "40.6 ± 0.6", "unit": "mN/m"},
      {"measurement": "surface tension liquid-gas", "setting": "x1 = 0.9", "result": "42.4 ± 0.6", "unit": "mN/m"},
      {"measurement": "surface tension liquid-gas", "setting": "x1 = 1", "result": "44.3 ± 0.6", "unit": "mN/m"}
    ]},
    {"compound": "CCn1cc[n+](C)c1.COP(=O)([O-])OC", "note": "[1-ethyl-3-methylimidazolium dimethylphosphate] + O", "values": [
      {"measurement": "surface tension liquid-gas", "setting": "x1 = 0.1", "result": "48.9 ± 0.69", "unit": "mN/m"},
      {"measurement": "surface tension liquid-gas", "setting": "x1 = 0.2", "result": "47 ± 0.63", "unit": "mN/m"},
      {"measurement": "surface tension liquid-gas", "setting": "x1 = 0.3", "result": "46.4 ± 0.62", "unit": "mN/m"},
      {"measurement": "surface tension liquid-gas", "setting": "x1 = 0.4", "result": "46.2 ± 0.62", "unit": "mN/m"},
      {"measurement": "surface tension liquid-gas", "setting": "x1 = 0.5", "result": "45.1 ± 0.61", "unit": "mN/m"},
      {"measurement": "surface tension liquid-gas", "setting": "x1 = 0.6", "result": "44.2 ± 0.6", "unit": "mN/m"},
      {"measurement": "surface tension liquid-gas", "setting": "x1 = 0.7", "result": "44.1 ± 0.61", "unit": "mN/m"},
      {"measurement": "surface tension liquid-gas", "setting": "x1 = 0.8", "result": "44.5 ± 0.62", "unit": "mN/m"},
      {"measurement": "surface tension liquid-gas", "setting": "x1 = 0.9", "result": "44.4 ± 0.62", "unit": "mN/m"},
      {"measurement": "surface tension liquid-gas", "setting": "x1 = 1", "result": "44.3 ± 0.62", "unit": "mN/m"}
    ]},
    {"compound": "CCO", "note": "[ethanol] + CCCCOP(=O)([O-])OCCCC.CCCCn1cc[n+](C)c1", "values": [
      {"measurement": "surface tension liquid-gas", "setting": "x2 = 0", "result": "21.9 ± 0.3", "unit": "mN/m"}
    ]},
    {"compound": "CCO", "note": "[ethanol] + CCCCn1cc[n+](C)c1.COP(=O)([O-])OC", "values": [
      {"measurement": "surface tension liquid-gas", "setting": "x2 = 0", "result": "21.9 ± 0.3", "unit": "mN/m"}
    ]}
  ]
}
